From patent publication US20110071115A1, “PHARMACEUTICALLY USEFUL HETEROCYCLE-SUBSTITUTED LACTAMS” (CYLENE PHARMACEUTICALS, INC., priority 2009, published 2011) come the findings set out here.

For one experiment, the target named is recombinant human Pim-2 (Homo sapiens, UniProt Q9P1W9). The experiment is described as follows: PIM-2 assay (33P-ATP filter plate). The format is biochemical. The settings on record: 2.5 uM compound. The method, then: Test compounds dissolved and diluted in DMSO (2 μl) were added to a reaction mixture comprising 10 μl of 5× Reaction Buffer (40 mM MOPS pH 7.0, 5 mM EDTA), 10 of recombinant human Pim-2 solution (4 ng Pim-2 dissolved in dilution buffer (20 mM MOPS pH 7.0; EDTA 1 mM; 5% Glycerol; 0.01% Brij 35; […]; […] 2-mercaptoethanol; 1 mg/ml BSA)) and 8 ul of water. Reactions were initiated by the addition of 10 ul of ATP Solution (49% (15 mM MgCl2; 75 uM ATP) 1% ([γ-33P]ATP: Stock 1 mCi/100 μl; 3000 Ci/mmol (Perkin Elmer)) and 10 ul of substrate peptide solution (RSRSSYPAGT, dissolved in water at a concentration of 1 mM), Reactions were maintained for […] at 30° C. The reactions were quenched with 100 ul of 0.75% phosphoric acid, then transferred to and filtered through a Phosphocellulose filter plate (Millipore, MSPH-N6B-50). After washing each well 4 times with 0.75% phosphoric acid, scintillation fluid (20 μL) was added to each well and the residual radioactivity was measured using a Wallac luminescence counter.

The subject of the next experiment is MDAMB453. The experiment is described as follows: Alamar Blue (AB) cell proliferation assay, MDAMB453. The format is cell-based. The method, then: (§1) A representative cell-proliferation assay protocol using Alamar Blue dye (stored at 4° C., use 20 ul per well) is described hereafter.
(§2) c. Plate 4,000-5,000 cells per well in 100 μl of medium and seed into a 96-well plate according to the following plate layout. Add cell culture medium only to wells B10 to B12. Wells B1 to B9 have cells but no compound added.
(§3) d. Add 100 μl of 2× drug dilution to each well in a concentration shown in the plate layout above. At the same time, add 100 μl of media into the control wells (wells B10 to B12). Total volume is 200 μl/well.
(§4) e. Incubate four (4) days at 37° C., 5% CO2 in a humidified incubator.
(§5) f. Add 20 μl Alamar Blue reagent to each well.
(§6) g. Incubate for four (4) hours at 37° C., 5% CO2 in a humidified incubator.
(§7) h. Record fluorescence at an excitation wavelength of 544 nm and emission wavelength of 590 nm using a microplate reader.
(§8) In the assays, cells are cultured with a test compound for approximately four days, the dye is then added to the cells and fluorescence of […] dye is detected after approximately four hours. Different types of cells can be utilized in the assays (e.g., HCT-116 human colorectal carcinoma cells, PC-3 human prostatic cancer cells, MDA-MB231 human breast cancer cells, K-562 human chronic myelogenous leukemia (CML) cells, MiaPaca human pancreatic carcinoma cells, MV-4 human acute myeloid leukemia cells, and BxPC3 human pancreatic adenocarcinoma cells).
Background: Alamar Blue is a resazurin reagent that responds to reducing activity.

Experiment [1] deals with BxPC3 human pancreatic adenocarcinoma cells. In words: Alamar Blue (AB) cell proliferation assay, BxPC3. The format is cell-based. The method, then: as §1, §2, §3, §4, §5, §6, §7, §8
The target of a further experiment is T1, recombinant human CK2 (Homo sapiens, UniProt P68400).
T1 construct: purchased Upstate
In words: CK2 assay (cell-free, 33P-ATP filter plate). The experiment is classed as biochemical. As for the experimental part: Modulatory activity of compounds described herein was assessed in vitro in cell-free CK2 assays by the following method.
Test compounds in aqueous solution were added at a volume of 10 microliters, to a reaction mixture comprising 10 microliters Assay Dilution Buffer (ADB; 20 mM MOPS, pH 7.2, 25 mM beta-glycerolphosphate, 5 mM EGTA, 1 mM sodium orthovanadate and 1 mM dithiothreitol), 10 microliters of substrate peptide (RRRDDDSDDD, dissolved in ADB at a concentration of 1 mM), 10 microliters of recombinant human CK2 (25 ng dissolved in ADB; Upstate). Reactions were initiated by the addition of 10 microliters of ATP Solution (90% 75 mM MgCl2, 75 micromolar ATP dissolved in ADB; 10% [γ-^33P]ATP (stock 1 mCi/100 μl; 3000 Ci/mmol (Perkin Elmer) and maintained for 10 minutes at 30° C. The reactions were quenched with 100 microliters of 0.75% phosphoric acid, then transferred to and filtered through a phosphocellulose filter plate (Millipore). After washing each well 5 times with 0.75% phosphoric acid, the plate was dried under vacuum for 5 min and, following the addition of 15 ul of scintilation fluid to each well, the residual radioactivity was measured using a Wallac luminescence counter.

Where two headings read alike, the source gives them in different places. Where only a bound is given, the exact number is not on record here.

Sequence of recombinant human Pim-2 (Q9P1W9 whole entry): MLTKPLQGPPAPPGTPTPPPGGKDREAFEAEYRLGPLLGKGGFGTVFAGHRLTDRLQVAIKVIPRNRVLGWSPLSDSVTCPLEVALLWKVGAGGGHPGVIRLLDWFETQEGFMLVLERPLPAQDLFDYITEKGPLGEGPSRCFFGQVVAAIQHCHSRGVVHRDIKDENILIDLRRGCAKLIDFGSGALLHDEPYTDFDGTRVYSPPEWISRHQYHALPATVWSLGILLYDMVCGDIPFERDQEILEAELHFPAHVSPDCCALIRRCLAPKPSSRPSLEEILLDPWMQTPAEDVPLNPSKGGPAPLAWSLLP
T1 sequence (P68400 whole entry): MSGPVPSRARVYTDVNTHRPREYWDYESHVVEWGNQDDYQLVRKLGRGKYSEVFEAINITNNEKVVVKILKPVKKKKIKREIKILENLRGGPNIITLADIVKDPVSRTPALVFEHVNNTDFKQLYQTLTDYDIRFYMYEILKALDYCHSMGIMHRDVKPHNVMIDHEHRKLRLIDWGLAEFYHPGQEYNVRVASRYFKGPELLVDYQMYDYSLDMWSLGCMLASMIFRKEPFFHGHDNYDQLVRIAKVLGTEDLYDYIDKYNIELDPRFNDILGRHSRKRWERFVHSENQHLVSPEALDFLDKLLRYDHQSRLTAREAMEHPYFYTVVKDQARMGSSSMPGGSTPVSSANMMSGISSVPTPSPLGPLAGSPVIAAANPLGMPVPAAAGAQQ
T1 sequence (P67870 whole entry partner): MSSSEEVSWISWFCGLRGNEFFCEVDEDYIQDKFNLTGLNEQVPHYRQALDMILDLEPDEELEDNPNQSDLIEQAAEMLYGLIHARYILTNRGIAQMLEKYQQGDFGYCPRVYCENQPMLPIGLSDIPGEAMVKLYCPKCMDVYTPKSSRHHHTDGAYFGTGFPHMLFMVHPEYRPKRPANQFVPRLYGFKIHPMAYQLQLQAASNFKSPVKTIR

In the case of `C[C@H](Nc1cc(NC2CC2)n2ncc(/C=C3\CC(=O)NC3=O)c2n1)c1ccccc1` [Example A12], the inhibition at 2.5 µM on recombinant human Pim-2 (read-out: PIM2: % inh 2.5 uM) amounted to 6.72%. For the same compound, the IC50 in the experiment with MDAMB453 (Homo sapiens, MDA-MB-453, MDAMB453 cells) was 6.09 µM; in experiment [1] (Homo sapiens, BXPC-3) it was 11.3 µM; on recombinant human CK2 it was less than 1 µM.

As for `O=C(O)CCCC(=O)OCN1C(=O)C/C(=C\c2cnn3c(NC4CC4)cc(Nc4cc(Cl)ccc4F)nc23)C1=O` [Example P2], on recombinant human Pim-2, the “PIM2: % inh 2.5 uM” value was determined as 73.771%. For the same compound, the IC50 is more than 30 µM in the experiment on MDAMB453 (MDAMB453 cells), more than 30 µM in experiment [1] and less than 0.1 µM at recombinant human CK2.

With `CC(N)C(=O)OCN1C(=O)C/C(=C\c2cnn3c(NC4CC4)cc(Nc4cc(Cl)ccc4F)nc23)C1=O` (stereo not drawn) [Example P7, (E)-(3-((5-(5-chloro-2-fluorophenylamino)-7-(cyclopropylamino)pyrazolo[1,5-a]pyrimidin-3-yl)methylene)-2,5-dioxopyrrolidin-1-yl)methy 2-aminopropanoate], the “PIM2: % inh 2.5 uM” value at recombinant human Pim-2 is on record as 49.047%. Further, the IC50 is 10.5 µM with MDAMB453 (MDAMB453 cells), 12.4 µM in experiment [1] and less than 1 µM at recombinant human CK2.

A word on the IC50: it is the concentration needed to halve the response being measured.
